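Where inhibition never reached the appropriate level, the endpoint shown equals the highest concentration tested. Otherwise, values were interpolated linearly from a five-concentration, 48-hour dose response in 96-well plates. Abbreviation: GI50, concentration required for 50% inhibition of growth.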 The source made the active and inactive calls. Cut-off read from the data, not from the text of the source: active = GI50 up to about 1.1 µM and inactive = higher.
What was measured:
Assay in all cases: growth of human tumour cells (NCI), 48 h
LXFL 529 = tested on: LXFL 529
SK-MEL-5 = tested on: SK-MEL-5
HOP-92 = tested on: HOP-92
Malme-3M = tested on: Malme-3M
U-251 = tested on: U-251
DLD-1 = tested on: DLD-1
SNB-19 = tested on: SNB-19
UO-31 = tested on: UO-31
OVCAR-3 = tested on: OVCAR-3
SF-539 = tested on: SF-539
RPMI-8226 = tested on: RPMI-8226
KM12 = tested on: KM12
M19-MEL = tested on: M19-MEL
OVCAR-4 = tested on: OVCAR-4
XF498 = tested on: XF498
HT-29 = tested on: HT-29
M14 = tested on: M14
K562 = tested on: K562
HCT-15 = tested on: HCT-15
TK-10 = tested on: TK-10
SW-620 = tested on: SW-620
SK-MEL-28 = tested on: SK-MEL-28
NCI-H460 = tested on: NCI-H460
786-0 = tested on: 786-0
SK-OV-3 = tested on: SK-OV-3
SNB-75 = tested on: SNB-75
RXF 393 = tested on: RXF 393
KM-20L2 = tested on: KM-20L2
MOLT-4 = tested on: MOLT-4
NCI-H522 = tested on: NCI-H522
UACC-62 = tested on: UACC-62
ACHN = tested on: ACHN
NCI-H226 = tested on: NCI-H226
DMS-273 = tested on: DMS-273
OVCAR-5 = tested on: OVCAR-5
HCC 2998 = tested on: HCC 2998
SF-295 = tested on: SF-295
COLO 205 = tested on: COLO 205
UACC-257 = tested on: UACC-257
HL-60 = tested on: HL-60
A549 = tested on: A549
HOP-18 = tested on: HOP-18
NCI-H23 = tested on: NCI-H23
SF-268 = tested on: SF-268
CCRF-CEM = tested on: CCRF-CEM
A498 = tested on: A498
EKVX = tested on: EKVX
IGROV-1 = tested on: IGROV-1
OVCAR-8 = tested on: OVCAR-8
SK-MEL-2 = tested on: SK-MEL-2
HOP-62 = tested on: HOP-62
DMS-114 = tested on: DMS-114
LOX IMVI = tested on: LOX IMVI

Measured: GI50

COc1cc(C2c3cc4c(cc3[C@@H](NCCN(C)C)C3COC(=O)[C@H]23)OCO4)cc(OC)c1O (some centres not stated)
inactive: LXFL 529 1.43 µM | OVCAR-4 1.98 µM
active: SK-MEL-5 0.0869 µM | HOP-92 0.0232 µM | Malme-3M 0.21 µM | U-251 0.0359 µM | DLD-1 1.06 µM | SNB-19 0.338 µM | UO-31 0.149 µM | OVCAR-3 1.05 µM | SF-539 0.0375 µM | RPMI-8226 0.455 µM | KM12 0.475 µM | M19-MEL 0.575 µM | XF498 0.12 µM | HT-29 0.536 µM | M14 0.229 µM | K562 0.253 µM | TK-10 0.853 µM | SW-620 0.153 µM | SK-MEL-28 0.284 µM
0.147 µM: HCT-15

CC1COS(=O)N1c1ccccc1 (configuration not stated)
inactive: NCI-H460 > 100 µM | 786-0 > 100 µM | SK-OV-3 > 100 µM | SNB-75 > 100 µM | RXF 393 > 100 µM | LXFL 529 > 100 µM | SK-MEL-5 > 100 µM | HOP-92 > 100 µM | KM-20L2 > 100 µM | Malme-3M > 100 µM | U-251 > 100 µM | DLD-1 > 100 µM | UO-31 > 100 µM | MOLT-4 > 100 µM | NCI-H522 > 100 µM | UACC-62 > 100 µM | RPMI-8226 > 100 µM | KM12 > 100 µM | M19-MEL > 100 µM | ACHN > 100 µM | OVCAR-4 > 100 µM | NCI-H226 > 100 µM | DMS-273 > 100 µM | XF498 > 100 µM | HT-29 > 100 µM | M14 > 100 µM | K562 > 100 µM | OVCAR-5 > 100 µM | HCC 2998 > 100 µM | SF-295 > 100 µM | COLO 205 > 100 µM | UACC-257 > 100 µM | HL-60 > 100 µM | A549 > 100 µM | HOP-18 > 100 µM | TK-10 > 100 µM | NCI-H23 > 100 µM | SF-268 > 100 µM | CCRF-CEM > 100 µM | A498 > 100 µM | SW-620 > 100 µM | EKVX > 100 µM | IGROV-1 > 100 µM | SK-MEL-28 > 100 µM | OVCAR-8 > 100 µM | SK-MEL-2 > 100 µM | HOP-62 > 100 µM | DMS-114 > 100 µM | LOX IMVI > 100 µM
> 100 µM: HCT-15

From ChEMBL document CHEMBL1201862, “PubChem BioAssay data set” (2004)
